According to PubChem BioAssay (NCI):
Values joined by “and” are separate entries in the source; they are usually repeats but may differ in a detail not shown here. Equal entries are not always repeated.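 Tested at 5 concentrations; 48 h exposure; 96-well plates; endpoints linearly interpolated, else capped at highest concentration. GI50: concentration for 50% inhibition of growth. Definition used: TGI = concentration required for complete inhibition of growth.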

Assays:
Assay in all cases: NCI anticancer screen, dose series, 48 h
A549 NSCLC = tested on: A549 NSCLC
SF-539 CNS = tested on: SF-539 CNS
HOP-62 NSCLC = tested on: HOP-62 NSCLC
EKVX NSCLC = tested on: EKVX NSCLC
SK-MEL-2 melanoma = tested on: SK-MEL-2 melanoma
MALME-3M melanoma = tested on: MALME-3M melanoma
ACHN renal = tested on: ACHN renal
OVCAR-8 ovarian = tested on: OVCAR-8 ovarian
SR leukemia = tested on: SR leukemia
IGROV1 ovarian = tested on: IGROV1 ovarian

| Structure (SMILES) | TGI (A549 NSCLC) | TGI (SF-539 CNS) | TGI (HOP-62 NSCLC) | TGI (EKVX NSCLC) | TGI (SK-MEL-2 melanoma) | TGI (MALME-3M melanoma) | TGI (ACHN renal) | TGI (OVCAR-8 ovarian) | TGI (SR leukemia) | TGI (IGROV1 ovarian) | GI50 (A549 NSCLC) | GI50 (SF-539 CNS) | GI50 (HOP-62 NSCLC) | GI50 (EKVX NSCLC) | GI50 (SK-MEL-2 melanoma) | GI50 (MALME-3M melanoma) | GI50 (ACHN renal) | GI50 (OVCAR-8 ovarian) | GI50 (SR leukemia) | GI50 (IGROV1 ovarian) |
| --- | --- | --- | --- | --- | --- | --- | --- | --- | --- | --- | --- | --- | --- | --- | --- | --- | --- | --- | --- | --- |
| COc1cc(C(C)O)c[n+](CCc2c[nH]c3ccccc23)c1 (centres undefined) | > 100 µM | > 100 µM | > 100 µM | > 100 µM | > 100 µM | > 100 µM | > 100 µM | > 100 µM | > 100 µM | > 100 µM |  |  |  |  |  |  |  |  |  |  |
| CS/C(N)=N\NC(=O)CCC(=O)Nc1ccccc1C(F)(F)F | > 100 µM | > 100 µM | > 100 µM | > 100 µM | > 100 µM | > 100 µM | > 100 µM | > 100 µM | > 100 µM | > 100 µM |  |  |  |  |  |  |  |  |  |  |
| CN1CCN(CCCOc2ccc3nc(Nc4ccc(Cl)c(C(F)(F)F)c4)ccc3c2)CC1 | 28.9 µM | 33.3 µM | 29.6 µM | 29.1 µM | 31.6 µM | 28.4 µM | 32 µM | 32.4 µM | 10.7 µM | 30.1 µM | 14.7 µM | 13.8 µM | 14.9 µM | 15 µM | 16.5 µM | 11.3 µM | 12.5 µM | 16.4 µM | 2.7 µM | 13.2 µM |
| COC(=O)[C@@H](C)CNS(=O)(=O)N(c1cc(C(F)(F)F)cc(C(F)(F)F)c1)C1CCN(Cc2ccc(F)cc2)CC1 | 31 µM | 26.4 µM | 29 µM | 28.9 µM | 41 µM | 22.3 µM | 30 µM | 33.4 µM | 9.22 µM | 44.9 µM | 14 µM | 13.2 µM | 15 µM | 12.2 µM | 21 µM | 6.89 µM | 14 µM | 14.6 µM | 3.81 µM | 18.8 µM |
| COc1cccc2c1C(=O)c1c(O)c3c(c(O)c1C2=O)C[C@@](O)(C(C)=O)C[C@@H]3OC1OC(C)C(O)C(N)C1Br (some centres undefined) | 0.262 µM | 0.701 µM and 0.388 µM | 0.0785 µM and 0.236 µM | 5.04 µM and 1.98 µM | 0.715 µM and 0.704 µM | 0.297 µM and 0.225 µM | 0.174 µM and 0.139 µM | 0.207 µM and 0.646 µM | 0.0185 µM | 1.41 µM and 9.05 µM |  | 0.0419 µM |  | 0.195 µM | 0.198 µM | 0.0215 µM |  | 0.0331 µM |  |  |
| CCOC(=O)CC1(C(=O)OCC)c2[nH]c3ccccc3c2CCN1Cc1ccccc1 (centres undefined) | 40.3 µM | 35.8 µM | 33.6 µM | 50.8 µM | 32.8 µM | 37.3 µM | 50.9 µM | 78.7 µM | 52.6 µM | 52.9 µM |  |  |  |  |  |  |  |  |  |  |
| COC(=O)C1=C(C)N(NC(=O)OC(C)(C)C)C(=O)C1=P(c1ccccc1)(c1ccccc1)c1ccccc1 | > 100 µM | > 100 µM | > 100 µM | > 100 µM | > 100 µM | > 100 µM | > 100 µM | > 100 µM | > 100 µM | > 100 µM |  |  |  |  |  |  |  |  |  |  |
| NCC1Nc2ccccc2[C@@H](O)C1O (some centres undefined) | > 100 µM | > 100 µM | > 100 µM | > 100 µM | > 100 µM | > 100 µM | > 100 µM | > 100 µM | > 100 µM | > 100 µM |  |  |  |  |  |  |  |  |  |  |
| COC(C(O)CO)C(O)C(O)C(=O)NNc1ccccc1 (centres undefined) | > 100 µM | 98.3 µM | > 100 µM | > 100 µM | > 100 µM | > 100 µM | > 100 µM | > 100 µM | > 100 µM | > 100 µM |  |  |  |  |  |  |  |  |  |  |
| C=C1C(=O)O[C@@H]2/C=C(\C)CC/C=C(/COC(C)=O)C[C@@H](OC(C)=O)[C@@H]12 | > 100 µM | 36.3 µM | 72.6 µM | 25.8 µM | 31.8 µM | 8.85 µM | 17 µM | > 55.3 µM | 7.39 µM | 28.1 µM |  |  |  |  |  |  |  |  |  |  |
| O=C(N/N=C/c1ccccc1)c1c(-c2cccnc2)cnc2ccccc12 | > 100 µM | > 100 µM | > 100 µM | > 100 µM | > 100 µM | > 100 µM | > 100 µM | > 100 µM | > 100 µM | > 100 µM |  |  |  |  |  |  |  |  |  |  |
| Oc1cccnc1CN1CCCCC1 | > 100 µM | > 100 µM | > 100 µM | > 100 µM | > 100 µM | > 100 µM | > 100 µM | > 100 µM | > 100 µM | > 100 µM |  |  |  |  |  |  |  |  |  |  |
| CC(C)C(Nc1c2ccccc2nc2ccccc12)C(=O)O (centres undefined) | > 100 µM | > 100 µM |  | > 100 µM | > 100 µM | > 100 µM | > 100 µM | > 100 µM | > 100 µM | > 100 µM |  |  |  |  |  |  |  |  |  |  |
| COc1ccc(Cn2cc3c(c2-c2ccccc2)CC(C)(C)c2cnoc2-3)cc1 | > 100 µM | 6.02 µM | > 100 µM | > 100 µM | 53.6 µM | > 100 µM | > 100 µM | > 100 µM | > 100 µM | > 100 µM | 3.17 µM | 2.18 µM | 4.05 µM | 1.99 µM | 2.9 µM | 1.63 µM | 5.06 µM | 4.66 µM | 0.483 µM | 2.3 µM |
| N#C/C(=C1C=C(Br)/C(=N\O)C=C\1Cl)c1cccc2ccccc12 | 26 µM | 4.52 µM | 26.4 µM | 23.3 µM | 8.9 µM | 21.4 µM | 22.9 µM | 52.7 µM | 13.8 µM | > 100 µM |  |  |  |  |  |  |  |  |  |  |
| CN(C)C(=O)c1cc2cnc(Nc3ccc(-c4csc5c(=S)cc(N6CCOCC6)oc45)cc3)nc2n1C1CCCC1 | 5.15 µM | 2.03 µM | > 50 µM | > 13.7 µM | 2.84 µM | 31.1 µM | > 50 µM | > 50 µM | > 50 µM | > 50 µM | 0.823 µM | 0.517 µM | 0.694 µM | 0.792 µM | 0.971 µM | 0.778 µM | 0.377 µM | 0.744 µM | 0.145 µM | 0.509 µM |
| COc1cc(-c2ccc3c(c2)NC(=O)/C3=C\c2ccc[nH]2)ccc1O | > 50 µM | 0.236 µM | > 50 µM | > 50 µM | > 50 µM | > 50 µM | > 50 µM | > 50 µM | > 30.5 µM | > 50 µM | 0.0374 µM | 0.0156 µM | 0.0563 µM | 0.144 µM | 0.034 µM | 2.65 µM | 0.0417 µM | 0.0252 µM | 0.014 µM | 0.0697 µM |
